Results reported in patent publication US10053451B2, “Heterocyclic estrogen receptor modulators and uses thereof” (priority 2015, dated 2018).
pIC50: −log10 of the molar value.

Tests used:
ER-α = target: T1, ER-α (Homo sapiens, UniProt P03372); experiment: ER-α In Cell Western Assay; assay type: cell-based; conditions: MCF7 cells, 4 hours post compound addition, SP1 anti-ER antibody; read-out: ICW (SP1) max response
T1 construct: MCF7 cells were trypsinized and washed twice; endogenous in cells; host or cells: MCF7 breast cancer cells
T1 sequence (P03372 1-595): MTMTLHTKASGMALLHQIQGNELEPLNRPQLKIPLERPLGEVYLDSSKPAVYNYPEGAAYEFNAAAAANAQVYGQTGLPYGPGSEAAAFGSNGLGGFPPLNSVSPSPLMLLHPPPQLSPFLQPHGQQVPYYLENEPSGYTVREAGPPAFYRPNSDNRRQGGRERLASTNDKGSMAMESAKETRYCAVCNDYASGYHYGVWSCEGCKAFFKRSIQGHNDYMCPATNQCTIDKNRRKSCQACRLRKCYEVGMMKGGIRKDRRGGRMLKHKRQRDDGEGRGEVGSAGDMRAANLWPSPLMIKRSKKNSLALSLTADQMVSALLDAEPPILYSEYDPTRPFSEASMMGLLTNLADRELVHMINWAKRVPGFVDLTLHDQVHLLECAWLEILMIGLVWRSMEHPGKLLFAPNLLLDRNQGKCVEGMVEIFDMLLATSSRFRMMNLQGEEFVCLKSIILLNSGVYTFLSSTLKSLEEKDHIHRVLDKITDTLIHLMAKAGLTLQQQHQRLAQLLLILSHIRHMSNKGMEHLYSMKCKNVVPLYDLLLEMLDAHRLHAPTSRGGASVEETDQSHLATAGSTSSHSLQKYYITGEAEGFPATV
Description: MCF7 cells were trypsinized and washed twice in Phenol Red Free RPMI containing 5% Charcoal Dextran Stripped serum with 20 mM HEPES and NEAA, then adjusted to a concentration of 200,000 cells per mL with the same medium. Next, 16 μL of the cell suspension (3200 cells) was added to each well of a poly-D-lysine coated 384 well plate, and the cells were incubated at 37° C. over 4 days to allow the cells to adhere and grow. […] At 4 hours post compound addition, the cells were fixed by adding 16 μL of 30% formalin to the 32 μL of cells and compound (10% formalin final concentration) for 20 minutes. Cells were then washed twice with PBS Tween 0.1% and then permeabilized in PBS 0.1% Triton (50 μl/well) for additional 15 minutes. The PBS 0.1% triton was decanted, and the cells were washed: LI-COR blocking buffer (50 μL/well) was added, the plate was spun at 3000 rpm, and then the blocking buffer was decanted. Additional LI-COR blocking buffer (50 μL/well) was added, and the cells were incubated overnight at 4° C. The blocking buffer was decanted, and the cells were incubated overnight at 4° C. with SP1 (Thermo Scientific) anti-ER rabbit monoclonal antibody diluted 1:1000 in LI-COR blocking buffer/0.1% Tween-20. Wells which were treated with blocking buffer with Tween but no antibody were used as a background control. Wells were washed twice with PBS Tween 0.1% to remove free SP1 antibodies, and the cells were incubated at room temp for 60-90 minutes in LI-COR goat anti-rabbit IRDye™ 800CW (1:1000) and DRAQ5 DNA dye (1:10000 of 5 mM stock solution) diluted in LI-COR blocking buffer containing 0.1% Tween-20 and 0.01% SDS. Cells were then washed with 0.1% Tween-20/PBS three times. Plates were scanned on a LI-COR Odyssey infrared imaging system. Integrated intensities in the 800 nm channel and 700 nm channel were measured to determine levels of ER-α and DNA respectively. Percent ER levels were determined as follows: (Integrated intensity […] sample/integrated intensity 700 nm sample)/(Integrated intensity 800 nm untreated cells/integrated intensity 700 nm untreated cells)×100=% ER levels.

MCF-7 cells = experiment: Breast Cancer Cell Viability Assay (CellTiter-Glo); assay type: cell-based; conditions: 5 days of compound exposure; for pIC50: Homo sapiens, MCF7, 120 h, read-out: MCF7 viab IC50
Description: The following day a 10 point, serial 1:5 dilution of each compound was added to the cells in 16 μL at a final concentration ranging from 10-0.00000 μM. After 5 days of compound exposure, 16 μL of CellTiter-GLo (Promega, Madison Wis.) was added to the cells, and the relative luminescence units (RLUs) of each well were determined. CellTiter-Glo added to 32 μL of medium without cells was used to obtain a background value.

Row | Emax (ER-α) | pIC50 (MCF-7 cells) | Structure (SMILES) | MCF7 viab max response (MCF-7 cells)
1 | 65.9% | 9.74 | CC1=C(c2cccc(O)c2)C(c2ccc(OCCN3CCCC3)nc2)Oc2ccc(O)cc21 (stereo not drawn) [Example 1, 3-(3-Hydroxyphenyl)-4-methyl-2-(6-(2-(pyrrolidin-1-yl)ethoxy)pyridin-3-yl)-2H-chromen-6-ol] | 53.6
2 | 70.1% | 9.44 | CC1=C(c2cccc(O)c2)C(c2cnc(OCCN3CCCC3)cn2)Oc2ccc(O)cc21 (stereo not drawn) [Example 4, 3-(3-Hydroxyphenyl)-4-methyl-2-(5-(2-(pyrrolidin-1-yl)ethoxy)pyrazin-2-yl)-2H-chromen-6-ol] | 49.5
